Results as given in patent US20030078274A1, “Method of reducing neuronal injury or apoptosis” (priority 1999, published 2003).

Test system: neurons in rat cerebrocortical cultures (gp120-induced apoptosis)
Assay: gp120-induced neuronal apoptosis in rat cerebrocortical cultures
Type: cell-based, Sprague-Dawley rats
Settings: SB 203580 10 μM, applied 15 min before gp120
Description: The model used in the assays described below, i.e., rat cerebrocortical cultures, was prepared from embryos of Sprague-Dawley rats at day 15 to 17 of gestation. See Lei et al., Neuron 8:1087-1099 (1992) and Lipton et al., Nature 364:626-632 (1993). Cultures were used for experiments after 17 to 24 days in culture. […] Prior to some experiments, macrophages/microglia or neurons were depleted from the cultures by exposure to 7.5 mM L-leucine methyl ester or 2 mM N-methyl-D-aspartate (NMDA), respectively. See Lipton, NeuroReport 3:913-915 (1992). […] In some experiments, the Griess reaction was used to measure nitrite levels in the culture medium as an index of nitric oxide (NO) release. See Chao et al., Glia 16:276-284 (1996).
Cultures were transferred into Earle's Balanced Salt Solution (EBSS) and incubated for 24 hours with gp120, chemokines, Tuftsin fragment 1-3, i.e., Thr-Lys-Pro (TKP), p38 MAPK inhibitor SB 203580 (i.e., 4-(4-fluorophenyl)-2-(4-methylsulfinylphenyl)-5-(4-pyridyl)imidazole, Calbiochem, San Diego, Calif.), or combinations thereof. Chemokines or TKP were applied for 5 minutes and SB 203580 for 15 minutes prior to gp120 exposure.
TKP was obtained from Sigma (St. Louis, Mo.). Recombinant human MIP-1β, SDF-1α, SDF-1β, and recombinant rat RANTES were purchased from R&D systems ([…].) and Endogen (Woburn, Mass.), respectively. HIV-1 envelope glycoprotein gp120 from the strain SF2 was obtained from the NIH AIDS Research and Reference Reagent Program, Division of AIDS, NIAID, NIH. See Scandella et al., AIDS Res. Hum. Retroviruses 9:1233-1244 (1993). Additional gp120s from HIV-1 strains IIIB and RF2 were obtained from Genetech and the National Cancer Institute, respectively. TNFα, IFNγ, and IL-1β were from Genzyme (Cambridge, Mass.), Gibco BRL (Grand Island, N.Y.) and Endogen (Woburn, Mass.), respectively.
Neuronal apoptosis in the above-described assays was assessed using a variety of techniques, e.g., staining of permeabilized cells with propidium iodide to determine apoptotic morphology, and a neuron-specific antibody (against NeuN or MAP-2) to identify cell type. In brief, cells were fixed for 5 minutes with ice-cold acetone at −20° C. and, after three washes in PBS, for 4 minutes with 2% (w/v) paraformaldehyde solution in PBS at room temperature (RT). Acetone-paraformaldehyde-fixed cells were permeabilized using 0.2% Tween 20 in PBS (PBST), and non-specific binding sites were blocked by incubation for 1 hour with a 10% solution of heat-inactivated goat serum in PBST. To specifically stain neurons, cells were then incubated for 4 hours at RT or overnight at 4° C. with 1:500 dilutions of anti-MAP-2 (Sigma) or anti-NeuN monoclonal antibody (mAb; Chemicon, Temecula, Calif.). Their respective non-specific isotype antibodies served as controls. After three washes, the cells were incubated in a secondary polyclonal antibody (pAb) conjugated either to fluorescein isothiocyanate (FITC) or to horseradish peroxidase (HRP). In the case of HRP-coupled pAb, diaminobenzidine (DAB) served as the color substrate developed by incubation in a mixture of 1 mg/ml DAB and 0.8% H2O2 at a ratio of 3:1. Cellular nuclei were subsequently stained with […] propidium iodide for 5 minutes in the dark, and then coverslips were mounted on glass slides. Experiments were replicated at least 3 times with triplicate values in each experiment. Statistical significance was judged by an analysis of variance (ANOVA) followed by a Scheffé or Bonferroni/Dunn post hoc test.

With C[S+]([O-])c1ccc(-c2nc(-c3ccc(F)cc3)c(-c3ccncc3)[nH]2)cc1 (stereo not shown) [SB 203580, 4-(4-fluorophenyl)-2-(4-methylsulfinylphenyl)-5-(4-pyridyl)-1H-imidazole] the “effect on gp120SF2-induced neuronal apoptosis” value was “substantially attenuated”.
